Source: patent US9598466B2, “Glycopeptide constructs and uses thereof” (Sloan-Kettering Institute for Cancer Research, priority 2008, dated 2017)

Experiments:
[1] = test system: human HLA-DR; conditions: literature (Southwood et al. 1998); cited from earlier work
[2] = ELISA of sera from vaccinated mice for antibodies against Gb3; type: in vivo, mice (C57BL/6J); conditions: mice vaccinated subcutaneously, unconjugated antigen plus an adjuvant such as QS-21; sera tested against Gb3-ceramide
Procedure: Groups of five mice were vaccinated subcutaneously with Gb3-MUC5AC or Gb3-MUC5AC-KLH conjugate plus adjuvant with appropriate controls. Sera were tested against Gb3-ceramide by ELISA.
Groups of five mice (C57BL/6J, female, 6-8 weeks old) were vaccinated three times with GB3-ceramide conjugate (5 μg equivalent of GB3), MUC5Ac peptide (5 μg equivalent of MUC5Ac), GB3-MUC5Ac-SH conjugate (5 μg equivalent of GB3-MUC5AC), GB3-MUC5Ac-KLH conjugate (1, 5 and 10 μg equivalent of GB3-MUC5Ac), Globo H-KLH conjugate (5 μg equivalent of GloboH) and KLH protein alone (5 μg equivalent of KLH) in 100 μL phosphate buffered saline (PBS) either with an adjuvant (20 μg) or without adjuvant. Vaccines were administered subcutaneously to each mouse on weeks 1, 2, 3, and 7. Mice were bled 7 days after the third vaccination and forth vaccination.
The presence of antibodies was tested by an enzyme-linked immunosorbent assay (ELISA). ELISAs were performed to determine antibody response against GB3, Globo H and KLH. The ELISA plates were coated with either GB3 antigen or Globo H at 0.2 μg/well and 0.1 μg/well respectively in ethanol or KLH at 0.1 μg/well in carbonate buffer (pH 10). The GB3-coated and Globo H coated plates were kept overnight at room temperature to evaporate ethanol, and KLH coated plates were incubated at 4° C. overnight. […] Absorbance was measured at 405 nm.

Row | Substance | binding capacity to human HLA-DR alleles [1] | number of different alleles of human HLA-DR bound [1] | antibodies against Gb3 by ELISA [2]
1 | GLAYKFVVPGAATPY | prevalently in the nanomolar range | up to 9 | 
2 | globotriaosyl ceramide [Gb3-ceramide] |  |  | failed to produce antibodies against Gb3
